Data reported in EPA's ToxValDB 9.5 (doi:10.2903/j.efsa.2009.269r).

Key:
Daphnia magna = details: chronic/long-term; duration: 21 days; reproduction
Rattus norvegicus = details: for NOAEL: histopathology: nonneoplastic
Folsomia candida = details: chronic/long-term; reproduction
Anas platyrhynchos = details: acute; oral; unspecified; mortality
Apis mellifera = details: acute; duration: 48 hours; dermal; mortality
Bibionidae = details: chronic/long-term; duration: 28 days
Tagia sp. = details: mortality
Canidae = details: chronic; duration: 1 years; oral; Dog Other; organ weight
Aphidius rhopalosiphi = assay: LR50; higher = less toxic; details: not reported; mortality

Clc1ccccc1-c1nnc(-c2ccccc2Cl)nn1 [Clofentezine]
LC50 (Oncorhynchus mykiss; acute, duration: 96 hours, mortality): > 0.0146 µg/mL | NOEC (Oncorhynchus mykiss; chronic/long-term, duration: 97 days): 0.007 mg/L | NOEC (Daphnia magna): 0.025 mg/L | LC50 (Colinus virginianus; acute, oral, diet, mortality): > 4000 mg/kg-day | NOEC (Colinus virginianus; reproduction developmental): 7.62 mg/kg-day | LD50 (Rattus norvegicus; acute, oral, mortality): > 5200 mg/kg-day | NOEC (Rattus norvegicus; chronic): 40 mg/kg-day | NOAEL (Rattus norvegicus; chronic, duration: 2 years): 2 mg/kg-day | NOAEL (Rattus norvegicus; subchronic, duration: 90 days, oral): 2.65 mg/kg-day | NOEC (Folsomia candida): 160 mg/kg | LD50 (Anas platyrhynchos): > 3000 mg/kg-day | LD50 (Apis mellifera): > 84.5 µg/piece | NOEC (Bibionidae): 0.5 mg/L | LC50 (Tagia sp.; acute): 430 mg/kg | NOEC (Tagia sp.; chronic/long-term): 5310 mg/kg | NOAEL (Canidae): 1.7 mg/kg-day | LR50 (Aphidius rhopalosiphi): 36.2 g/ha
